Data from patent publication US6878388B1, “Vanadium compounds for treating proliferative cell disorders” (Parker Hughes Institute, priority 2000, dated 2005).

How the values were obtained:
Format in all cases: cell-based, human
U87 cells = test: In vitro invasion assay, Matrigel-coated Boyden chambers, U87; details: 24 h preincubation, 3 experiments, read-out: Mean IC50 inhibition of invasion through Matrigel matrix
Method: (§1) Tumor invasion of the basement membrane is a crucial step in the complex multistage process that leads to metastatic spread. Tumor cells cross the basement membrane as they initially invade the lymphatic or vascular beds during dissemination and as they penetrate their target tissues. […]
(§2) Invasion of cancer cells treated with [VO(SO4)(Me2-Phen)2] was assayed using Matrigel-coated Costar 24-well transwell cell culture chambers (“Boyden chambers”) with 8.0-μm-pore polycarbonate filter inserts as described previously (Narla et al., Clin Cancer Res, 4: 2463-2471, 1998; Ghosh et al., Anticancer Drug Des, 14: 403-410, 1999; Albini et al., J Cell Biol, 105: 1867-1872, 1987). […] The cells were trypsinized, washed twice with serum-free medium containing BSA, counted and resuspended in a serum-free medium at 1×10^5 cells/ml. […] The invasive cells that migrated to the lower side of the filter were fixed, stained with Hema-3 solution and counted under a light microscope. Five to 10 random fields per filter were counted to determine the invasive fraction. The invasive fractions of cells treated with [VO(SO4)(Me2-Phen)2] were compared to those of DMSO-treated control cells and the percent inhibition of invasiveness was determined. […]

MDA-MB-231 cells = test: In vitro invasion assay, Matrigel-coated Boyden chambers, MDA-MB-231; details: 24 h preincubation, 3 experiments, read-out: Mean IC50 inhibition of invasion through Matrigel matrix
Method: as §1, §2

[1] = tested on: MDA-MB-361 breast cancer cells; test: MTT cytotoxicity assay, MDA-MB-361; details: MDA-MB-361 cells, 48 h incubation, 3 independent experiments, read-out: IC50 (mean ± SE)
Method: Human brain tumor cells lines U87 MG (Cat.# HTB-14), U118 MG (Cat. # HTB-15), U138 (Cat # HTB-16), U373 MG (CAT. # HTB-17), and T98G (Cat. # CRL-1690) and breast cancer cell lines BT-20 (Cat # HTB-19), MDA-MB-231 (Cat # HTB-26), MDA-MB-361 (Cat # HTB-27), and MCF-7 (Cat # HTB-22) were obtained from American Type Culture Collection (ATCC, Rockville, Md.) and maintained as continuous cell lines in Dulbecco's modified Eagles's medium (U87, U118, U138, U373, T98 and BT-20) or Leibovitz's L-15 medium (MDA-MB-231 and MDA-MB-361). All media were supplemented with 10% fetal calf serum (FCS), 4 mM glutamine, 100 U/ml penicillin G and […] streptomycin sulfate. All tissue culture reagents were obtained from Life Technologies Inc. (GIBCO-BRL, Gaithersburg, Md.).
The cytotoxicity of [VO(SO4)(Me2-Phen)2] against human cancer cell lines was analyzed using the MTT (3-[4,5-dimethylthiazol-2-yl]-2,5-diphenyl tetrazolium bromide) assay (Boehringer Mannheim Corp., Indianapolis, Ind.) as described previously (Narla et al., Clin Cancer Res., 4: 1405-1414, 1998). […] The absorbance at 540 nm (a reference wavelength of 690 nm was used) of the solution in each well was measured using a microplate reader (Labsystems). The percent survival and the IC50 values were calculated using Graphpad Prism v2.0 (Graphpad Software, Inc., San Diego, Calif.) as described previously (Narla et al., Supra). […]

**Q.** What does the source list for `Cc1ccnc2c1ccc1c(C)ccnc12.Cc1ccnc2c1ccc1c(C)ccnc12.O=S(=O)([O-])[O-].[O]=[V+2]` [[VO(SO4)(Me2-Phen)2], bis(4,7-dimethyl-1,10-phenanthroline) sulfatooxovanadium (IV)]?
**A.** IC50 (U87 cells): 0.78 ± 0.4 µM; IC50 (MDA-MB-231 cells): 0.6 ± 0.3 µM; IC50 [1]: 1.9 ± 0.5 µM
